Assay results from ChEMBL document CHEMBL5241130, “Integrating a phenotypic screening with a structural simplification strategy to identify 4-phenoxy-quinoline derivatives to potently disrupt the mitotic localization of Aurora kinase B” (Bioorg Med Chem, 2023).

target: Aurora kinase B (Homo sapiens) (UniProt Q96GD4); experiment: Disruption of mitotic localization of AURKB in human RPE-MYC H2B-GFP cells assessed as induction of mitotic arrest measured after 24 hrs by fluorescence high content cell imaging analysis; type: cell-based
Sequence (Q96GD4 whole entry): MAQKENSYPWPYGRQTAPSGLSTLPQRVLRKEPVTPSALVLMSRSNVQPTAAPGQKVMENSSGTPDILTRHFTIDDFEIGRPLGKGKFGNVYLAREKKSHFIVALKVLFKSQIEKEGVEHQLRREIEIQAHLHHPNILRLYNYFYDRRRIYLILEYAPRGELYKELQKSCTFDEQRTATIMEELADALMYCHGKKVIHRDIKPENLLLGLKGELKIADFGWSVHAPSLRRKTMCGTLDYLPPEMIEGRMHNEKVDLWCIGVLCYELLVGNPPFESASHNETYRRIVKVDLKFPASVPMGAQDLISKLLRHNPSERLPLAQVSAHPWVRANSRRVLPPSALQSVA

| SMILES | MEC |
| --- | --- |
| COC(=O)c1ccc(OC)c(Oc2ccnc3ccccc23)c1 | 0.625 µM |
| COc1cc(Oc2ccnc3cc(OC)ccc23)cc(-n2cccn2)c1 | 5 µM |
| COc1cc(Oc2ccnc3ccccc23)cc(-c2nc(C)no2)c1 | 0.625 µM |
| COc1cc(NC(C)=O)cc(Oc2ccnc3cc(OC)c(C(N)=O)cc23)c1 | 0.625 µM |

The next lines start with the values.

| MEC | SMILES |
| --- | --- |
| > 40 µM | O=C(NC1CCCC1)c1cccc(Oc2ccnc3ccccc23)c1 |
| > 40 µM | COc1ccc(Oc2ccnc3ccccc23)cc1 |
| 10 µM | CC(=O)c1cccc(Oc2ccnc3ccccc23)c1 |
| > 40 µM | c1ccc(Oc2ccnc3ccccc23)cc1 |

target: Aurora kinase B (Homo sapiens) (UniProt Q96GD4); experiment: Disruption of mitotic localization of AURKB in human RPE-MYC H2B-GFP cells assessed as induction of polyploidy by fluorescence high content cell imaging analysis; type: cell-based

| SMILES | MEC |
| --- | --- |
| COC(=O)c1ccc(OC)c(Oc2ccnc3ccccc23)c1 | 0.625 µM |
| COc1cc(Oc2ccnc3cc(OC)ccc23)cc(-n2cccn2)c1 | 5 µM |
| COc1cc(Oc2ccnc3ccccc23)cc(-c2nc(C)no2)c1 | 0.625 µM |
| COc1cc(NC(C)=O)cc(Oc2ccnc3cc(OC)c(C(N)=O)cc23)c1 | 0.625 µM |

Now from value to compound:

| MEC | SMILES |
| --- | --- |
| > 40 µM | O=C(NC1CCCC1)c1cccc(Oc2ccnc3ccccc23)c1 |
| > 40 µM | COc1ccc(Oc2ccnc3ccccc23)cc1 |
| 10 µM | CC(=O)c1cccc(Oc2ccnc3ccccc23)c1 |
| > 40 µM | c1ccc(Oc2ccnc3ccccc23)cc1 |
